Laboratory results published in patent US20250011788A1, “NUCLEIC ACID INTERFERENCE PHARMACEUTICAL COMPOSITION, AND DRUG FOR TREATING COLORECTAL CANCER, GASTRIC CANCER, AND PROSTATE CANCER” (SIRNAOMICS BIOPHARMACEUTICALS (SUZHOU) CO., LTD., priority 2022, published 2025).
d = 2'-deoxy (DNA); r = 2'-OH (RNA)

What was measured:
[1] = tested on: MC38 cells tumor graft; experiment: Mouse subcutaneous tumor graft model of colorectal cancer MC38 cells; format: in vivo, C57BL/6 mice; conditions: STP500 2 mg/kg i.v. Q2D, siMD8 1 mg/kg i.v. Q2D, Sorafenib 30 mg/kg p.o. QD
From the text: Based on the data from previous in-vitro experiments, two siRNAs (MD8-21-hm5# and TF1-25-hm5# in this example) were mixed at a mass ratio of 1/1, and encapsulated the mixture into the HKP(+H) (histidine-lysine polymer) carrier through patented PNP technology to prepare the nanoparticle formulation (the nano drug formulation STP500 prepared in Example 8). The tumor growth inhibitory activity of the candidate siRNA sequence was validated by a mouse tumor xenograft model (colorectal cancer cells MC38).
C57BL/6 mice were each inoculated subcutaneously with 1×10^6 MC38 cells per mouse, and randomized groups when the mean tumor volume reached about 100 mm^3. The dosing regimen was as follows: for STP500, 2 mg/kg, intravenously administered (i.v.) via the tail vein, every 2 days (Q2D); for Small nucleic acid monotherapy MD8 (MyD88 siRNA, also known as siMyD88), 1 mg/kg, intravenously administered (i.v.) via the tail vein, every 2 days (Q2D); and for the positive control group (Sorafenib), 30 mg/kg, intragastrically administered p.o., every day (QD). After the first dose, the weight and tumor volume of the mice were recorded every 2 days, and the tumor volume was calculated by V=0.5×(Dmax×Dmin^2), where Dmax refers to the longest diameter of the tumor, and Dmin refers to the shortest diameter of the tumor. […] TGItw (percentage change in tumor weight) was calculated by: […]

[2] = tested on: MyD88 gene (mRNA); experiment: In vitro screening of MyD88 siRNA: MyD88 mRNA silencing by RT-PCR; format: cell-based, human; conditions: 100 nM siRNA; for target gene silencing effect in colorectal cells: lipo2000, 20-24 h
Experimental: Some cell lines screened out in Example 2 were used for primary siRNA screening, including a breast cancer cell line (MDA-MB-231), a neuroglioma cell line (U87-MG), a human brain glioma cell line (T98G), a human colorectal cancer epithelial cell line (DLD-1) and a human colon cancer cell line (RKO). Specifically, the MyD88 siRNA sequence in Table 1 was transfected into the above five cells by lipo2000, and the transfection concentration was 100 nM (calculated by siRNA). After transfection for 20-24 h, the total RNA of the cells was extracted, and the mRNA expression level of the target gene MyD88 was detected by RT-PCR technology. […] The three specifical sequences are MD8-21-hm3# (NTS00025-21-hm3# in FIG. 3), MD8-21-hm4# (NTS00025-21-hm4# in FIG. 3) and MD8-21-hm5# (NTS00025-21-hm5# in FIG. 3).

[3] = tested on: MKN45 cells tumor xenograft; experiment: Mouse subcutaneous tumor xenograft model of gastric cancer MKN45 cells; format: in vivo, BALB/c-Nude mice
Experimental: Next, another tumor graft model was established to further validate the pharmacodynamic evaluation of candidate drug on the growth of mouse tumor xenograft of human gastric cancer MKN45 cells. The nano drug formulation was prepared by the method described above. MKN45 subcutaneous tumor-bearing mice were modeled as follows: BALB/c-Nude mice were each inoculated subcutaneously with 5×10^6 MKN45 cells. Randomization was performed when the mean tumor volume reached about 100-120 mm^3. […] After the first dose, the weight and tumor volume of the mice were recorded every 2 days, and the tumor volume was calculated by V=0.5×(Dmax×Dmin^2), where Dmax refers to the longest diameter of the tumor, and Dmin refers to the shortest diameter of the tumor. A tumor volume curve was drawn at the end of the experiment. The mice were euthanized, and tumors were removed and weighed. TGItw (percentage change in tumor weight) was calculated by:
(§1) [formula] • Mean TWtreat: the mean tumor weight of the mice in the treatment group at the end of treatment; • Mean TWvehicle: the Mean tumor weight of mice in the Vehicle group at the end of treatment.

[4] = tested on: MyD88 gene (mRNA); experiment: EC50 of MyD88 mRNA knockdown in human-derived cell lines; format: cell-based
Experimental: Then, for these candidate siRNA sequences, multiple concentration gradients were set in human-derived cell lines and mouse-derived cell lines respectively for cell transfection, and their EC50 values (half-maximal effective concentration) were obtained. […] In the mouse-derived cell lines, EC50<10 nM only occurs for MD8-21-hm5# in mouse prostate cancer (RM-1) cells and colorectal cancer (MC38) cells as well as MD8-21-hm4# in colorectal cancer (MC38) cells. Therefore, based on the above data, the human-mouse homologous sequence MD8-21-hm5# is preferably used for pharmacodynamic evaluation of animal models in vivo.

[5] = tested on: RM-1 cells tumor graft; experiment: Mouse subcutaneous tumor graft model of prostate cancer RM-1 cells; format: in vivo, C57BL/6J mice
Experimental: Next, another tumor graft model was established to further validate the pharmacodynamic evaluation of candidate drug on the growth of mouse tumor graft of mouse prostate cancer RM-1 cells. The nano drug formulation was prepared by the method described above. RM-1 subcutaneous tumor-bearing mice were modeled as follows: C57BL/6J mice were each inoculated subcutaneously with 5×10^6 cells. The mice were grouped on the basis of random numbers when the mean tumor volume reached about 100-120 mm^3. The dosing regimen was as follows: for STP500, 3 mg/kg, intravenously administered (i.v.) via the tail vein, every 2 days (Q2D); for The positive control (docetaxel), 15 mg/kg, intraperitoneally administered (i.p.), every week (QW). After the first dose, the weight and tumor volume of the mice were recorded every 2 days, and the tumor volume was calculated by V=0.5×(Dmax×Dmin^2), where Dmax refers to the longest diameter of the tumor, and Dmin refers to the shortest diameter of the tumor. A tumor volume curve was drawn at the end of the experiment. The mice were euthanized, and tumors were removed and weighed. TGItw (percentage change in Tumor weight) was calculated by:
as §1

[6] = tested on: DLD-1 cells; experiment: In vitro cell migration (wound healing/scratch) test; format: cell-based, human; conditions: 96 h, 100 and 10 nM, dose-dependent
Experimental: On the day before the initiation of the experiment, a 12-well plate was prepared, a 2-well culture-insert for wound healing (ibidi, 80209) was placed in the center of the culture dish, and cells were inoculated into the 2-well culture-insert at 1×10^4 cells per well and cultured overnight. On the second day, siMyD88 was transfected into the cells at […] and 10 nM, and the transfection experiment was completed. After transfection for 24 h, the 2-well culture-insert for wound healing was gently removed with tweezers (to avoid cell shedding), and the 12-well plate was added with a medium containing 1% serum to continue cell culture. At the same time, a photograph was taken under the microscope as the 0 h cell migration data. The culture was continued for 24 h and 96 h, and the cell migration was recorded under the microscope. The cell migration was determined by comparing the wound distance at the initial scratch (0 h) versus at the later observation points (24 h and 96 h).

[7] = tested on: MyD88 protein; experiment: Western Blot knockdown of target gene protein in cell lines (MyD88); format: cell-based, human and mouse cell lines; conditions: MDA-MB-231, RKO and RM-1 cells; 100 nM and 10 nM, 48 h
[8] = tested on: TGF-β1 protein; experiment: Western Blot knockdown of target gene protein in cell lines (TGF-β1); format: cell-based, human; conditions: RKO cell line; 100 nM and 10 nM, 48 h
Experimental: The target gene knockdown effects of siRNA sequences on the targets TGF-β1 and MyD88 at the cellular level were evaluated by Western Blot. The procedures were as follows: on The day before the initiation of the experiment, the cells were inoculated in a 6-well plate at 1×10^6 cells per well, and cultured overnight. On the second day, siMyD88 and siTF1 were transfected into the cells at 100 nM and 10 nM respectively. After transfection for 48 h, the cells were collected and transferred to centrifuge tubes. RIPA lysate was added to each tube to extract total cell protein, and then the total cell protein concentration was quantified by a BCA protein quantification method. Western Blot analysis was performed on all protein samples using the following antibodies: MyD88 primary antibody (ab219413, 1:1000), TGF-β1 primary antibody (ab215715, 1:1000), Goat Anti-Rabbit IgG H&L (HRP) (ab205718, 1:10000). After the experiment, the ChemiDoc™ MP Imaging System (BIO-RAD) was used to capture the results.
Western Blot analysis of protein expression in candidate MyD88 siRNA (MD8-21-hm5#) plus TGF-β1 siRNA (TF1-21-h1#) in three cell lines in in-vitro human breast cancer cell line (MDA-MB-231) (FIG. 5A), human colon cancer cell line (RKO) (FIG. 5B) and mouse prostate cancer (RM-1) cells (FIG. 5C).

CNC(=O)c1cc(Oc2ccc(NC(=O)Nc3ccc(Cl)c(C(F)(F)F)c3)cc2)ccn1 [Sorafenib]
Tumor weight, Mean ([1]; end of treatment): 0.3571 g
TGItw (tumor growth inhibition by tumor weight) ([1]; versus Vehicle): 12.28%

MD8-21-hm4#: MyD88 siRNA; sense GCAAGGAAUGUGACUUCCAdTdT (SEQ ID NO: 29), antisense UGGAAGUCACAUUCCUUGCdTdT (SEQ ID NO: 30) (sense GCAAGGAAUGUGACUUCCATT; antisense UGGAAGUCACAUUCCUUGCTT; sugars from the 5' end r19 d2, backbone not given here)
target gene silencing effect in colorectal cells [2]: about 85%

O=C1[O][Pt]2([NH][C@@H]3CCCC[C@H]3[NH]2)[O]C1=O [Oxaliplatin]
growth of gastric cancer tumor graft ([3]; after 7 doses, compared with control group): better tumor inhibition effect
Tumor weight, Mean ([3]; end of treatment, STP500 3 mg/kg i.v. Q2D, Oxaliplatin 7.5 mg/kg i.p. QD): 0.16 g
TGItw (tumor growth inhibition by tumor weight) ([3]; versus Vehicle, STP500 3 mg/kg i.v. Q2D, Oxaliplatin 7.5 mg/kg i.p. QD): 58%

MD8-21-hm3#: MyD88 siRNA; sense CAGAGCAAGGAAUGUGACUdTdT (SEQ ID NO: 27), antisense AGUCACAUUCCUUGCUCUGdTdT (SEQ ID NO: 28) (sense CAGAGCAAGGAAUGUGACUTT; antisense AGUCACAUUCCUUGCUCUGTT; sugars from the 5' end r19 d2, backbone not given here)
target gene silencing effect in colorectal cells [2]: about 85%

MD8-21-h5#: MyD88 siRNA; sense GCAUACACACGUUUUUCUAdTdT (SEQ ID NO: 9), antisense UAGAAAAACGUGUGUAUGCdTdT (SEQ ID NO: 10) (sense GCAUACACACGUUUUUCUATT; antisense UAGAAAAACGUGUGUAUGCTT; sugars from the 5' end r19 d2, backbone not given here)
effect in EC50 comparison [4]: relatively good
ranking of silencing effect among human-derived sequences ([2]; five human cell lines): best effect

CC(=O)O[C@@]12CO[C@@H]1C[C@H](O)[C@@]1(C)C(=O)[C@H](O)C3=C(C)[C@@H](OC(=O)[C@H](O)[C@@H](NC(=O)OC(C)(C)C)c4ccccc4)C[C@@](O)([C@@H](OC(=O)c4ccccc4)[C@H]21)C3(C)C [Docetaxel]
effect on the weight of mice ([5]; STP500 3 mg/kg Q2D, Docetaxel 15 mg/kg i.p. QW): no significant difference
growth of prostate cancer tumor graft ([5]; after 8 doses, compared with control group): did not show a tumor-killing effect
Tumor weight, Mean ([5]; end of treatment, STP500 3 mg/kg i.v. Q2D, Docetaxel 15 mg/kg i.p. QW): 4.72 g
TGItw (tumor growth inhibition by tumor weight) ([5]; versus Vehicle, STP500 3 mg/kg i.v. Q2D, Docetaxel 15 mg/kg i.p. QW): −4%

MD8-21-hm5#: MyD88 siRNA; sense GAAUGUGACUUCCAGACCAdTdT (SEQ ID NO: 31), antisense UGGUCUGGAAGUCACAUUCdTdT (SEQ ID NO: 32) (sense GAAUGUGACUUCCAGACCATT; antisense UGGUCUGGAAGUCACAUUCTT; sugars from the 5' end r19 d2, backbone not given here)
effect in EC50 comparison [4]: relatively good
inhibitory effect on in vitro migration ability [6]: significant inhibitory effect
target gene silencing effect in colorectal cells [2]: about 85%
knockdown effect on MyD88 protein [7]: obvious knockdown effect

TF1-21-h1#: TGF-β1 siRNA; sense GCAGAGUACACACAGCAUAdTdT (SEQ ID NO: 37), antisense UAUGCUGUGUGUACUCUGCdTdT (SEQ ID NO: 38) (sense GCAGAGUACACACAGCAUATT; antisense UAUGCUGUGUGUACUCUGCTT; sugars from the 5' end r19 d2, backbone not given here)
knockdown effect on TGF-β1 protein [8]: obvious knockdown effect
